Source: patent publication US8299252B2, “Pyrazolopyridine and pyrrolopyridine multikinase inhibitors” (Chugai Seiyaku Kabushiki Kaisha, priority 2005, dated 2012)
Converted amounts (≈) assume the structure as drawn.

Columns and labels:
[1] = system: choroidal neovascularization; experiment: Laser coagulation-induced murine choroidal neovascularization model; assay type: in vivo, C57BL6J mice; conditions: for Average FA score: once a day for three days
Protocol: Laser coagulation was performed on two- to three-month-old C57BL6J mice (ten mice per group) by using a 408 nm semiconductor laser (DC-3000, Nidek). Both eyes were each irradiated at three positions with a spot size of 170 μm, an exposure time of 0.02 sec, and an output of 200 mW. The drug was orally administered once a day for three days beginning on the day of the laser coagulation. On the next day of the last administration, the mice were intravenously injected with 7 mg/kg of fluorescein. Five minutes after the injection, three fluorescent fundus images of each eye were taken (TRC-501X, Topcon) and stored in a CCD camera having 640×480 pixels as an image file. The total pixel brightness (0 to 1) in regions where fluorescein leakage was detected was used as an index (FA score) of choroidal neovascularization activity. The FA score was calculated by defining reference values such that the pixel brightness in a capillary region of a non-coagulated site is 0 and the pixel brightness on a main branch of the retinal blood vessel is 1.

[2] = Pharmacokinetics test, oral administration; assay type: in vivo; conditions: female, Balb/c nude, mouse, 100 mg/kg, plasma
Protocol: The compound according to the present invention and known Compound A were measured for pharmacokinetics. Each of the test compounds was orally administered to each female Balb/c nude mouse at a dose of 100 mg/kg, and concentrations of the compound in plasma 0.5, 2, 7, and 24 hours after the administration were quantitatively measured by LC-MS-MS.

[3] = Solubility in fasted state simulated intestinal fluid; assay type: physicochemical; conditions: pH 6.5, fassif, kinetic from dmso stock, fasted state simulated intestinal fluid (pH6.5), 37° C.
Protocol: 2 μL of each dimethyl sulfoxide solutions containing test compounds were dispensed into wells of a 96-well plate, and 200 μL of fasted state simulated intestinal fluid (pH6.5) was added to each well. The plate was shaken at 37° C. for 20 hours. The solution was filtered through a membrane filter, and 101 μL of the filtrate was transferred to a UV plate, followed by addition of 100 μL of a solution mixture of ethanol:water=2:1 thereto. Separately, as a standard, 101 μL of a solution prepared by 2 μL of a dimethyl sulfoxide solution, 4 μL of dimethyl sulfoxide, 400 μL of ethanol, and 200 μL of water was transferred to a UV plate, and 100 μL of fasted state simulated intestinal fluid (pH6.5) was added thereto. The solubility was calculated by the following expression: Solubility=[(absorbance of test solution)−blank]/[(absorbance of standard solution)−blank]×165 μM (165 μM is the concentration of the standard solution) Composition of the fasted state simulated intestinal fluid (pH6.5)
The composition was prepared in compliance with the description in E. Galia, et al., Pharm. Res. 1998, 698.
Taurocholic acid (161 mg), L-α-phosphatidylcholine (59 mg), potassium dihydrogen phosphate (0.39 g), and potassium chloride (0.77 g) were added to about 90 mL of water. The resulting solution was adjusted to a pH of 6.5 with a sodium hydroxide aqueous solution and then diluted to a volume of 100 mL with water. The solution was filtered through a membrane filter.

[4] = system: human colon cancer cell line HCT116 cells; experiment: Antitumor test, HCT116 transplanted subcutaneously in nude mice; assay type: in vivo, female Balb/c nude mouse; conditions: 100 mg/kg oral, once a day for 12 days
Protocol: A cell suspension of human colon cancer cell line HCT116 cells was prepared using Hanks's solution, and 5.0×10^6 cells thereof were transplanted subcutaneously into the flank of each female Balb/c nude mouse. Oral administration of the test compound (once a day for 12 days) was started when the transplanted tumor volume reached 200 to 250 mm^3. The tumor volume was calculated by the expression: 0.5×(minor axis)^2×(major axis). The tumor growth inhibition ratio of tumor growth of the test compound to tumor growth of the reference group was determined.

[5] = system: human umbilical vein endothelial cells (HUVEC), VEGF-dependent proliferation; experiment: VEGF-dependent HUVEC proliferation inhibition assay; assay type: cell-based; conditions: read-out: 50% proliferation inhibitory concentration (IC50 value) HUVEC (VEGF-dependent), 20 ng/mL of VEGF, 72 hours, WST-1
Protocol: (§1) The compounds according to the present invention were measured for cancer cell proliferation inhibitory activity and human umbilical vein endothelial cell (HUVEC) proliferation inhibitory activity.
(§2) Test compounds were serially diluted with dimethyl sulfoxide and then diluted 50 times with Ca^2+- and Mg^2+-free phosphate-buffered saline, and 20 μL of each of the resulting solution was dispensed into a 96-well plate. […] Each cell suspension contains approximately 3000 cells/180 μL. These cell suspensions were dispensed to the plate containing the test compounds at 180 μL/well and incubated in a 5% carbon dioxide gas incubator at 37° C. for 72 hours. 20 μL of WST-8 (HCT116, Dojin) or WST-1 (HUVEC, Roche Diagnostics) was added to each well, and absorbance at 450 nm (reference wavelength: 650 nm) was measured.

[6] = system: human umbilical vein endothelial cells (HUVEC), VEGF-independent proliferation; experiment: VEGF-independent HUVEC proliferation inhibition assay; assay type: cell-based; conditions: read-out: 50% proliferation inhibitory concentration (IC50 value) HUVEC (VEGF-independent), vascular endothelial cell growth-promoting agent and heparin, 72 hours, WST-1
Protocol: as §1, §2

[7] = system: tube formation of human-derived vascular endothelial cells (HUVEC); experiment: Tube formation inhibition test (angiogenesis assay kit, KURABO); assay type: cell-based; conditions: 264 h, final concentration 6.4 nM, 11 days, read-out: Tube formation inhibition ratio (%)
Protocol: The formed tubes were stained with a tube staining kit CD31 (KURABO). The stain image of each well was taken under a microscope, stored in an image file, and measured for the tube formation area using angiogenesis quantitative analysis software of KURABO. The inhibition ratio % of each test compound added to the well was calculated, provided that the ratio of the reference was 100%.

[8] = system: human colon cancer cell line HCT116 cells; experiment: Cell proliferation inhibitory activity, HCT116; assay type: cell-based; conditions: Homo sapiens, HCT-116, read-out: 50% proliferation inhibitory concentration (IC50 value) HCT116; HCT116, 72 hours, WST-8
Protocol: as §1, §2

| AUC [2] | Cmax [2] | solubility at 20 h [3] | IC50 [8] | SMILES | inhibition of the angiogenesis (in words) ([1]; 100 mg/kg) | Average FA score ([1]; 100 mg/kg oral) | Tumor growth inhibition ratio (%) ([4]; last administration day) | Decrease ratio in body weight (%) ([4]; maximum decrease) | inhibition of the angiogenesis (in words) ([1]; 50 mg/kg) | Average FA score ([1]; 50 mg/kg oral) | IC50 [5] | IC50 [6] | inhibition at 0.0064 µM [7] |
| --- | --- | --- | --- | --- | --- | --- | --- | --- | --- | --- | --- | --- | --- |
| 189 µg·h/mL | 19200 ng/mL | 6 µg/mL (≈ 12.9 µM) | – | CNC(=O)c1cc(Oc2ccc(NC(=O)Nc3ccc(Cl)c(C(F)(F)F)c3)cc2)ccn1 [Compound A, BAY 43-9006, reference compound] | did not significantly inhibit | 7.258 | – | – | – | – | – | – | – |
| 247 µg·h/mL | 22700 ng/mL | 15 µg/mL (≈ 30.6 µM) | 2600 nM | O=C(Nc1ccc(Oc2ccnc3[nH]ccc23)cc1)Nc1ccc(CCC(F)F)c(C(F)(F)F)c1 [Compound 12, 1-[4-(3,3-Difluoropropyl)-3-(trifluoromethyl)phenyl]-3-[4-(1H-pyrrolo[2,3-b]pyridin-4-yloxy)phenyl]urea] | significantly inhibited | 6.833 | 100% | 6.5% | significantly inhibited | 6.910 | 5.1 nM | 270 nM | 81% |
